According to patent US10183936B2, “Hepatitis B core protein allosteric modulators” (priority 2014, dated 2019):

What was measured:
AD38 cells = assay: Viability of AD38 cells (Promega CellTiter-Glo) at the end of compound treatment; format: cell-based; details: 10 μM compound, 6 days, luminescence normalized against DMSO control wells (controls being 100%)
Procedure: (§1) Example 56: Assay Measuring Activity of Compounds on Viral Production in and on Viability of AD38 Cells
(§2) AD38 cells were then re-suspended with 10 mL of Treatment Medium and counted. Wells of a collagen coated 96-well NUNC microtiter plate were seeded at 50,000/well in 180 μL of Treatment Medium, and 20 μL of in treatment media with either 10% DMSO (Control) or a 10× solution of compound in 10% DMSO was added. Plates were incubated for 6 days at 37° C.
At the end of compound treatment period cell viability was assessed using a Promega CellTiter-Glo protocol. All supernatant was removed the previously treated 96-well microtiter plate, and 50 μL Tetracycline-free treatment medium (DMEM/F12 (1:1), lx Pen/step (cat#: 30-002-CL, Mediatech, Inc), with 2% FBS, Tet-system approved (cat#: 631106, Clontech), and 1% DMSO was added back to each well. Another 50 μL of CellTiter-Glo reagent solution (Promega, G7573) was then added at room temperature and the contents mixed for 2 minutes on an orbital shaker to induce cell lysis. This was followed by incubation at room temperature for 10 minutes to stabilize the luminescent signal. The luminescence was recorded for 0.2 seconds per well on a Tecan multimode platereader (Infinite M1000 pro). The luminescent signal from each well was normalized against that of untreated (DMSO) control wells. All results were reported percent viability (with controls being 100%).

[1] = test system: HBV viral production in AD38 cells; assay: Viral load production in AD38 cells by quantitative PCR of the HBV core sequence in supernatant; format: cell-based; details: 10 μM compound, 6 days at 37° C., viral load in supernatant compared against DMSO control wells; for activity at 10 µM: Hepatitis B virus, 144 h, read-out: AD38 Viral Load (CpAM/DMSO %) at 10 μM
Procedure: as §1, §2
Viral load production was assayed by quantitative PCR of the core sequence. Briefly, 5 μL of clarified supematant was added to a PCR reaction mixture that contained forward primers HBV-f 5′-CTGTGCCTTGGGTGGCTTT-3′, Reverse primers HBV-r 5′-[…]-3′ and Fluorescent TaqMan™ Probes HBV-probe 5′-FAM/AGCTCCAAA/ZEN/[…]/3IABkFQ-3′ in Quanta Biosciences PerfeCTa® qPCR Toughmix®, and was subsequently on an Applied Biosystems VIIA7 in a final volume of 20 μL. The PCR mixture was incubated at 45° C. for 5 minutes, then 95° C. for 10 min, followed by 40 cycles of 10 seconds at 95° C. and 20 seconds at 60° C. Viral load was quantitated against known standards by using ViiA™ 7 Software. Viral load in the supematant from wells with treated cells were compared against viral load in supernatant from DMSO control wells (≥3 per plate).

SMILES | AD38 Viability Normalized Result (CPAM/DMSO %) at 10 μM (AD38 cells) | activity at 10 µM [1] | AD38 Viral Load (CpAM/DMSO %) at 10 μM [1]
O=C(Nc1cccc(F)c1)c1ccc2c(c1)NC(=O)c1cc(F)ccc1S2 [Compound 1317] | 95% | 50% | 
O=C(NCc1ccc(-c2ccccc2)cc1)c1ccc2c(c1)NC(=O)c1ccccc1S2 [Compound 1112] | 73% | 4% | 
O=C(NCc1cncs1)c1ccc2c(c1)NC(=O)c1ccccc1[SH]2O (stereo not shown) [Compound 1536] | 120% |  | 2%
O=C1Nc2cc(S(=O)(=O)N3CC(O)C3)ccc2Sc2ccccc21 [Compound 1434] | 96% | 85% | 
O=C(NCc1cnc(Cl)s1)c1ccc2c(c1)NC(=O)c1ccccc1S2 [Compound 1589] | 85% | 1% | 
O=C(NCc1ccncc1)c1ccc2c(c1)NC(=O)c1ccccc1S2 [Compound 1572] | 116% | 5% | 
O=C(NCc1cncnc1)c1ccc2c(c1)NC(=O)c1ccc(F)cc1S2 [Compound 1347] | 94% | 3% | 
CN1C(=O)c2ccccc2Sc2ccc(C(=O)NCc3cncnc3)cc21 [Compound 1574] | 109% | 78% | 
Cc1c(C(=O)NCCc2cncs2)ccc2c1NC(=O)c1ccccc1S2 [Compound 1561] | 118% | 8% | 
O=C(Nc1ccncn1)c1ccc2c(c1)NC(=O)c1cc(F)ccc1S2 [Compound 1344] | 102% | 96% | 
O=C(NC(CO)Cc1cncnc1)c1ccc2c(c1)NC(=O)c1cc(F)ccc1S2 (stereo not shown) [Compound 1361, 2-fluoro-N-(1-hydroxy-3-(pyrimidin-5-yl)propan-2-yl)-11-oxo-10, 11-dihydrodibenzo [b,f] [1,4] thiazepine-8-carboxamide] | 113% | 79% | 
O=C(NCCc1cccnn1)c1ccc2c(c1)NC(=O)c1ccccc1S2 [Compound 1569] | 114% | 1% | 
O=C(NCCc1cncs1)c1ccc2c(c1)NC(=O)c1ccccc1S2(=O)=O [Compound 1617] | 118% | 1% | 
CN(C)S(=O)(=O)c1ccc(CCNC(=O)c2ccc3c(c2)NC(=O)c2ccccc2S3)cc1 [Compound 1102] | 100% | 1% | 
Cc1c(C(=O)NCCc2ccc(-c3ccccc3)cc2)ccc2c1NC(=O)c1ccccc1S2 [Compound 1495] | 77% | 9% | 
O=C(NCC1CCCCC1)c1ccc2c(c1)NC(=O)c1ccccc1S2 [Compound 1169] | 107% | 39% | 
O=C(NCCc1ccc(-n2ccnn2)cc1)c1ccc2c(c1)NC(=O)c1ccccc1S2 [Compound 1266] | 74% | 1% | 
O=C(Nc1ccc(-c2ccccc2)cc1)c1ccc2c(c1)NC(=O)c1cc(F)ccc1S2 [Compound 1326] | 95% | 23% | 
Cc1c(C(=O)NCCc2cnco2)ccc2c1NC(=O)c1ccccc1S2 [Compound 1560] | 92% | 13% | 
O=C1Nc2cc(S(=O)(=O)Nc3ccc(Cl)cc3F)ccc2Sc2ccccc21 [Compound 1544] | 97% | 40% | 
COCC(Cc1cncnc1)NC(=O)c1ccc2c(c1)NC(=O)c1cc(F)ccc1S2 (stereo not shown) [Compound 1397] | 95% | 73% | 
CC(=O)Nc1ccccc1NC(=O)c1ccc2c(c1)NC(=O)c1ccccc1S2 [Compound 1242] | 78% | 91% | 
N#Cc1ccc(CCNC(=O)c2ccc3c(c2)NC(=O)c2ccccc2S3)cc1 [Compound 1120] | 94% | 7% | 
O=C(Nc1cccc(-c2ccccc2)c1)c1ccc2c(c1)NC(=O)c1ccccc1S2 [Compound 1445] | 38% | 24% | 

SMILES | AD38 Viability Normalized Result (CPAM/DMSO %) at 10 μM (AD38 cells) | activity at 10 µM [1] | AD38 Viral Load (CpAM/DMSO %) at 10 μM [1]
O=C(NCCc1ccccn1)c1ccc2c(c1)NC(=O)c1ccc(F)cc1S2 [Compound 1348] | 107% | 0% | 
O=C(NCCc1nnc[nH]1)c1ccc2c(c1)NC(=O)c1ccccc1S2 [Compound 1551] | 91% | 51% | 
O=C(Nc1nnco1)c1ccc2c(c1)NC(=O)c1cc(F)ccc1S2 [Compound 1537] | 98% | 36% | 
O=C(Nc1ccncc1)c1ccc2c(c1)NC(=O)c1c(F)cccc1S2 [Compound 1463] | 97% | 31% | 
O=C1Nc2c(cc(F)c(C(=O)NCCc3ccc(-c4ccccc4)cc3)c2F)Sc2ccccc21 [Compound 1497] | 49% | 9% | 
O=C(NCCc1cnco1)c1ccc2c(c1)NC(=O)c1ccccc1[S+]2[O-] (stereo not shown) [Compound 1485] | 96% | 30% | 
COc1ncc(CNC(=O)c2ccc3c(c2)NC(=O)c2ccccc2S3)s1 [Compound 1612] | 112% | 0% | 
O=C(Nc1cccc(-c2cccnc2)c1)c1ccc2c(c1)NC(=O)c1cc(F)ccc1S2 [Compound 1400] | 105% | 34% | 
CCc1ncc(CNC(=O)c2ccc3c(c2)NC(=O)c2ccccc2S3)s1 [Compound 1604] | 105% | 0% | 
CCc1cccc(CCNC(=O)c2ccc3c(c2)NC(=O)c2ccccc2S3)c1 [Compound 1260] | 100% | 8% | 
CCN1c2ccc(C(=O)NCCc3cncs3)cc2NC(=O)c2ccccc21 [Compound 1566] | 91% | 31% | 
O=C(NCc1cnco1)c1ccc2c(c1)NC(=O)c1c(F)cccc1S2 [Compound 1542] | 95% | 34% | 
O=C(Nc1cccc(-c2cccc(O)c2)c1)c1ccc2c(c1)NC(=O)c1cc(F)ccc1S2 [Compound 1468] | 97% | 76% | 
CCOc1ccc(CCNC(=O)c2ccc3c(c2)NC(=O)c2ccccc2S3)cc1 [Compound 1214] | 94% | 2% | 
O=C(NCCCOc1ccccc1)c1ccc2c(c1)NC(=O)c1ccccc1S2 [Compound 1241] | 86% | 12% | 
O=C(NCc1cscn1)c1ccc2c(c1)NC(=O)c1ccccc1S2 [Compound 1584] | 95% | 52% | 
O=C(NCCc1cncnc1)c1ccc2c(c1)NC(=O)c1c(F)cccc1S2 [Compound 1543] | 90% | 72% | 
O=C(NCc1cncs1)c1ccc2c(c1)NC(=O)c1ccccc1N2Cc1ccccc1 [Compound 1510] | 82% | 62% | 
O=C(NCCc1cncs1)c1ccc2c(c1)NC(=O)c1ccccc1[S+]2[O-] (stereo not shown) [Compound 1527] | 116% | 19% | 
CCN1c2ccc(C(=O)NCc3cncs3)cc2NC(=O)c2ccccc21 [Compound 1534] | 109% | 5% | 
O=C1Nc2cc(S(=O)(=O)NCc3ccccc3)ccc2Sc2ccccc21 [Compound 1414] | 89% | 39% | 
CC(C)(C)c1ccc(CCNC(=O)c2ccc3c(c2)NC(=O)c2ccccc2S3)cc1 [Compound 1194] | 45% | 1% | 
O=C(NCCc1cccnc1)c1ccc2c(c1)NC(=O)c1cc(F)ccc1S2 [Compound 1376] | 63% | 3% | 
